{"source": "paper PMC7486940", "about": "“Pre-symptomatic Caspase-1 inhibitor delays cognitive decline in a mouse model of Alzheimer disease and aging” (Nature Communications, 2020)", "key": {"WT mice": {"test_system": "WT mice", "test": "Barnes maze, spatial learning and memory", "assay_type": "in vivo, mouse", "protocol": "(§1) VX-765 (Adooq Bioscience, Irvine, CA, USA) was dissolved 5 mg • ml^−1 in 20% cremophor in dH2O[60] (Sigma-Aldrich, ON, Canada) and administered IPWT and J20 mice received three injections per week of either 50 mg • kg^−1 VX-765 or 20% cremophor vehicle for 4 weeks between 2 and 3 months of age. Mice were longitudinally followed starting 4 weeks after the last injection [4-week washout (WO)], then every other month at 12- and 20-week WO (6 and 8 months of age, respectively). Intermediate 8- and 16-week WO periods were also looked at with a smaller number of mice. After each WO period, animals were randomly chosen, independent of behavioural performance, for sacrifice and assigned to either histological or biochemical analysis (Fig. 2a).\n(§2) Open-field and novel object recognition (NOR) were measured at all WO periods. The Barnes maze was assessed at 12- and 20-week WO. Open field: Mice were placed in an open-field chamber, composed of a plexiglass box with no ceiling and white floor, and allowed to explore for 5 min. NOR: Mice were pre-exposed to two identical objects in the open-field chamber for 5 min. Two hours after pre-exposure, mice were placed back into the chamber and exposed to one familiar object and one novel object for 5 min (test phase). Mice were exposed to a specific object only once across multiple test sessions. Barnes maze: Learning acquisition (days 1–4)—each mouse was trained to find the target and enter the escape box within 180 s. Four trials per day, ~15 min apart, were performed for 4 consecutive days. Probe (day 5)—a single, 90 s trial was performed on each mouse to measure primary latency and number of errors to reach the blocked target. Target hole location was changed between the two separate test sessions. Behavioural scoring was blinded to mouse genotype and treatment."}, "J20 mice": {"test_system": "J20 mice", "test": "Barnes maze, spatial learning and memory", "assay_type": "in vivo, mouse", "protocol": "as §1, §2"}, "Casp1": {"test_system": "Casp1", "design": "method as in PMID 30254377", "conditions": "in vitro Casp1; cited from earlier work"}, "[1]": {"design": "method as in PMID 30254377", "conditions": "cited from earlier work"}, "CD4 T-cell": {"test_system": "CD4 T-cell", "design": "method as in PMID 24356306", "conditions": "HIV; cited from earlier work"}, "IDE and Nep": {"test_system": "IDE and Nep", "test": "IDE and Nep mRNA and protein levels", "assay_type": "in vivo, mouse", "conditions": "hippocampus", "protocol": "as §1\n(§3) Twenty to sixty micrograms of protein or 16 μl of precipitated protein from culture medium were separated on SDS-PAGE or 4–12% NuPAGE Bis-Tris gels (Invitrogen, Carlsbad, CA, USA) with MES buffer (Invitrogen) and transferred onto PVDF membranes (Bio-Rad) according to the manufacturer’s instructions. […] Protein levels were normalized to β-actin and expressed as a percentage relative to the vehicle-treated WT group, except for APP which was compared to the vehicle-treated J20 group. […]"}, "APP": {"test_system": "APP", "test": "APP expression and processing (real-time PCR, western blot) in J20 hippocampus", "assay_type": "in vivo, mouse", "protocol": "as §1\nMice for biochemical analyses were isoflurane anesthetized, sacrificed by cervical dislocation, and the hippocampus and cortex dissected out and immediately frozen on dry ice. Brain tissue was homogenized in radioimmunoprecipitation assay (RIPA) buffer (50 mM Tris-HCl pH: 7.4, 1% NP-40, 0.25% Na-deoxycholate, 150 mM NaCl, 1 mM EDTA, with protease inhibitors), and supernatants placed in Laemmli (5% 2-β mercaptoethanol with protease inhibitors).\nas §3\nRNA was extracted with Qiazol and purified using the miRNeasy mini kit (Qiagen, CA, USA). RNA quality and quantity were determined using a spectrophotometer (DS-11 FX+, DeNovix, DE, USA) and RNA was reverse transcribed using First Strand cDNA Synthesis Kit (Qiagen) following the manufacturer’s protocol. […]"}, "[2]": {"conditions": "J20, 12-week WO, probe 24 h after last training day"}}}
{"smiles": "CCO[C@@H]1OC(=O)C[C@@H]1NC(=O)[C@@H]1CCCN1C(=O)[C@@H](NC(=O)c1ccc(N)c(Cl)c1)C(C)(C)C", "note": "[VX-765, (S)-1-((S)-2-{[1-(4-amino-3-chloro-phenyl)-methanoyl]-amino}-3,3-dimethyl-butanoyl)-pyrrolidine-2-carboxylic acid ((2R,3S)-2-ethoxy-5-oxo-tetrahydro-furan-3-yl)-amide]", "values": [{"measurement": "Barnes maze probe primary latency and primary errors", "setting": "WT mice; 12-week WO, vs vehicle-treated WT", "result": "decreased primary latency and primary errors compared to vehicle-treated WT mice"}, {"measurement": "Barnes maze probe primary latency and primary errors", "setting": "WT mice; 20-week WO", "result": "This effect was attenuated at 20-week WO"}, {"measurement": "Barnes maze probe preference towards the target area", "setting": "J20 mice; 12-week WO", "result": "All groups, except the vehicle-treated J20 group, showed a preference towards the target area"}, {"measurement": "Barnes maze training primary latency", "setting": "J20 mice; 12-week WO, all groups", "result": "did not differ between groups"}, {"measurement": "Barnes maze learning acquisition primary errors", "setting": "J20 mice; J20, 12-week WO, 50 mg/kg IP 3x/week for 1 month", "result": "prevented this learning deficit in J20 mice and reduced the number of errors committed to near WT levels"}, {"measurement": "Barnes maze probe primary errors", "setting": "J20 mice; [2]", "result": "VX-765 treatment prevented this deficit"}, {"measurement": "Barnes maze probe primary latency", "setting": "J20 mice; [2]", "result": "did not differ between vehicle- or VX-765-treated J20 and vehicle-treated WT groups"}, {"measurement": "Barnes maze learning deficits", "setting": "J20 mice; J20, 20-week WO", "result": "vehicle-, but not VX-765-treated, J20 mice exhibited learning deficits"}, {"measurement": "Barnes maze probe primary latency and primary errors", "setting": "J20 mice; J20, 20-week WO", "result": "these deficits were prevented with VX-765 treatment"}, {"measurement": "IC50", "setting": "Casp1", "result": 3.68, "unit": "nM"}, {"measurement": "concentration in the J20 brain", "setting": "[1]; 50 mg/kg dose of VX-765, carotid infusion, J20 mice", "result": "2000 to 5000", "unit": "nM"}, {"measurement": "blood–brain barrier permeability", "setting": "[1]", "result": "blood–brain barrier permeable"}, {"measurement": "inflammation, CD4 T-cell death and pyroptosis", "setting": "CD4 T-cell", "result": "reduce inflammation by suppressing CD4 T-cell death and pyroptosis in HIV"}, {"measurement": "Nep mRNA and protein levels", "setting": "IDE and Nep", "result": "remained unchanged"}, {"measurement": "IDE mRNA or protein levels", "setting": "IDE and Nep; WT vs vehicle- or VX-765-treated J20", "result": "did not change between WT and vehicle- or VX-765-treated J20 mice"}, {"measurement": "APP protein levels (anti-APP C-terminal antibody)", "setting": "APP; 4- and 20-week WO", "result": "not affected"}, {"measurement": "βCTF and αCTF levels", "setting": "APP; 4- or 20-week WO, vehicle vs VX-765", "result": "no differences in βCTF and αCTF levels"}, {"measurement": "human APP mRNA levels", "setting": "APP; 4-, 12- or 20-week WO", "result": "did not alter"}]}
